Patent US6979665B2, “Agent for stimulation of the natural defences of plants and methods for using it” (Laboratoires Goemar S.A., priority 2002, dated 2005)
Entries after “also recorded” stand apart in the source; their conditions may differ.

Assays:
[1] = tested on: PR proteins (families PR1, PR2, PR3 and PR5, acidic and alkaline isoforms); assay: Expression of PR proteins in infiltrated tobacco leaves by immunodetection; assay type: in vivo, Nicotiana tabacum
Protocol: Concerning the PR proteins, the expression of the acidic and of the alkaline isoforms of 4 families of these proteins, i.e. the families PR1, PR2, PR3 and PR5 has been analysed in the case of tobacco plants of the varieties NN and Bel3 infiltrated with compositions based on the fractions H11-C1 and H11-S at a concentration of 200 mg/l.
The analysis of these proteins has been carried out by immunodetection as disclosed in the publication in the name of Costet L., Dorey S., Fritig B. and Kauffmann S., published under the title: • “A pharmacological approach to test the diffusible signal activity of reactive oxygen intermediates in elicitor-treated tobacco leaves”, in Plant Cell and Physiology (2002) 43; 91-98.
The intensity of the induction appears on the tracks 1 to 8 by way of spots more or less pronounced.
The samples of infiltrated tissues on which the treatments illustrated by track 9 of FIG. 3 were made, were carried out 3 days after the infiltration treatment.
(§1) In another line of tests or experiences, the varieties NN and Bel3 have been treated with inducing compositions presenting respectively the concentrations of 0.5 and then of 5, of 20, of 50, of 200 and of 1,000 mg/l in H11-S and H11-C2 and the expression of the PR1 and PR2 acidic proteins in the case of the said varieties NN and Bel3 have been analysed.
That expression of the acidic PR1 and PR2 proteins is materialised by the intensity of the spots, which appear on the tracks 10, 11, 12, 13, and which are the result of the determination by immunodetection.

[2] = tested on: agronomically useful plants; assay: Stimulation of natural defence reactions of plants by liquid compositions (general statements); assay type: in vivo; settings: in practice
[3] = tested on: OMT activity (orthodiphenol-O-methyltransferases); assay: OMT activity in infiltrated tobacco leaves; assay type: in vivo, Nicotiana tabacum; settings: for stimulation of the OMT activity: 200 mg/l; for OMT activity relative to that obtained with H11-C2: 500 mg/l
Text: Measurement was also made of the OMT activity induced by the compositions based on the fractions H11-C1 and H11-S.
For the measurement of that activity, procedure was as disclosed by Costet L., Dorey S., Fritig B. and Kauffmann S in the publication here above identified and published under the title: • “A pharmacological approach to test the diffusible signal activity of reactive oxygen intermediates in […] tobacco leaves”, in Plant Cell and Physiology (2002) 43; 91-98.
The latter show the stimulation of the OMT activity, expressed in pkat/g FP (i.e. in picokatal per gram of fresh product FP, in other words of fresh vegetable material), by infiltration with water as control (reference C), then with the compositions based on H11-C1 and H11-S, the plants treated being again the varieties NN and Bel3.
The OMT activity has also been measured after infiltration of the varieties NN and Bel3 with the same compositions.
In another line of tests, the varieties NN and Bel3 have been treated with the same inducing compositions presenting respectively the concentrations of 0.5 and then of 5, of 50, of 200 and of 500 mg/l in H11-S and H11-C and the OMT activity in the case of the varieties NN and Bel3 has been analysed.
FIGS. 8 and 9 show the values of stimulation of the OMT activity (expressed in pkat/g FP) respectively in the case of the varieties NN and Bel3.

[4] = tested on: signalisation pathways of salicic acid and of ethylene; assay: Complementary experiences on signalisation pathways; assay type: in vivo
[5] = tested on: tobacco plants of the varieties NN and Bel3; assay: Symptoms of leaf tissues after infiltration into the mesophyl (depigmentation/chlorosis, fluorescence under UV light); assay type: in vivo, Nicotiana tabacum
Protocol: The treatment has been applied on the one hand to the whole plants and on the other hand to cellular suspensions, the varieties of the plants used being: • the variety Nicotiana tabacum cv. Samsun NN designated by NN • the variety Nicotiana tabacum cv. Bel3 designated by Bel3
First, the plants of the varieties NN and Bel 3 as such were treated using aqueous compositions comprising respectively the fractions H11-C1 and H11-S at the concentration of 200 mg/l, which is, as indicated hereabove, the optimum dosis for the elicitor activity of unsulfated glucans.
The treatment consists in the infiltration of the above said aqueous compositions based on the fractions H11-C1 and H11-S into the mesophyl of the leaves of the treated plants.
The infiltration is carried out by piercing tobacco leaves using a needle and by applying then perpendicularly with respect to the plane of the leave a syringe containing the solution to be injected. Immediately after the injection, the infiltration zone, visible by illumination of the leave from its lower face, is delimitated using a felt type pen. The infiltrated zone is designated by ZI.
as §1

scopoletin = assay: Accumulation of total scopoletin in infiltrated tissues; assay type: in vivo, Nicotiana tabacum; settings: variety Bel3, tissues sampled 3 days after infiltration (FIG. 6)
Text: (§2) The stimulation, after infiltration with the here above defined compositions H11-C and H11-S of the accumulation of salicylic acid and of scopoletin in the varieties NN and Bel3 was then examined.
(§3) The results of these experiences appear on FIGS. 5 and 6, which respectively show the accumulation—expressed in μg respectively of salicylic acid and of scopoletin per gram of infiltrated tissues—of the total salicylic acid (free and conjugated forms) and of the total scopoletin (free and conjugated forms) determined on tissues on the varieties NN and Bel3 infiltrated as indicated here above on the one hand with water (C) as a control and on the other hand with compositions based on the fractions H11-C1 and H11-S containing respectively 200 mg/l of these fractions, the infiltrated tissues being sampled 3 days after the infiltration treatment.

[6] = tested on: cellular suspension of Nicotiana tabacum cv. Bright Yellow; assay: Alkalinisation test of the extracellular medium on cellular suspension; assay type: cell-based; settings: after 10 minutes; 160 μl of 10 g/l composition added to 8 ml suspension, final concentration about 200 mg/l
Protocol: The cellular suspensions here above mentioned are suspensions obtained starting from the vegetal tissue of Nicotiana tabacum cv. Bright Yellow.
One of these experiences is consisting of the so-called alkalinisation test of the extracellular medium and the other of the so-called test of the refractory state.
In the case of the first test, the latter is carried out on a cellular suspension obtained starting from vegetable tissues of the variety Bright Yellow. To three 8 ml samples of that cellular suspension were added respectively 160 μl of three aqueous compositions respectively containing 10 g/l of the fractions H11-C1, I25 (oligofucanes) and H11-S, the final concentration in each of the oligosaccharides being equal to […].

salicylic acid = assay: Accumulation of total salicylic acid in infiltrated tissues; assay type: in vivo, Nicotiana tabacum; settings: variety Bel3, tissues sampled 3 days after infiltration (FIG. 5)
Text: as §2, §3

Which results are given for laminarin sulfate [H11-S]?
expression of acidic and alkaline isoforms of PR1, PR2, PR3 and PR5 proteins ([1]; 200 mg/l, varieties NN and Bel3, H11-S compared with H11-C1 (FIG. 1)): more important; also recorded: stronger; expression of the acidic PR1 protein ([1]; 200 mg/l, varieties NN and Bel3, tissues sampled 3 days after infiltration (FIG. 3)): highest expression; concentration from which acidic PR1 and PR2 proteins are detected ([1]; immunodetection, concentration series 0.5 to 1,000 mg/l, varieties NN and Bel3 (FIG. 7)): 5 to 20 mg/L; dosis at which the maximum response of expression of the PR proteins is reached ([1]; varieties NN and Bel3): 500 mg/L; concentration above which no better result is provided [2]: higher than 500 mg/l; stimulation of the OMT activity ([3]; varieties NN and Bel3, compared among C, H11-C1, H11-C2, H11-C3, H11-S, H16 (FIG. 4)): clearly better; stimulation of the OMT activity ([3]; variety Bel3, H11-S versus H11-C1 (FIG. 2)): clearly more intense; stimulation of the OMT activity ([3]; variety NN, H11-S versus H11-C1 (FIG. 2)): similar; increase of OMT activity as a function of the concentration ([3]; 0.5, 5, 50, 200 and 500 mg/l, varieties NN and Bel3 (FIGS. 8 and 9)): much faster; OMT activity relative to that obtained with H11-C2 ([3]; variety Bel3): about ten; OMT activity relative to that obtained with H11-C2 ([3]; variety NN): about four; factor by which the concentration can be lower than that of H11-C1, H11-C2 and H11-C3 for a comparable OMT result ([3]; conclusion from FIG. 4): eight; dosis at which the maximum response of OMT activity is reached ([3]; varieties NN and Bel3): 500 mg/L; factor by which the concentration can be lower for OMT stimulation equal to H11-C1 at 200 mg/l ([3]; variety Bel3, forecast from FIG. 2): 8 to 9 times; induction of signalisation pathways [4]: induce the signalisation pathways of salicic acid and of ethylene; fluorescence under U.V. light at the level of infiltrated tissues ([5]; 200 mg/l, infiltrated tissues): a blue fluorescence under U.V. light is observed; symptoms of chlorosis as a function of concentration ([5]; 0.5, 5, 20, 50, 200 and 1,000 mg/l, varieties NN and Bel3): the more the symptoms of chlorosis are severe; symptoms of the infiltrated tissues ([5]; aqueous composition 200 mg/l infiltrated into leaf mesophyl, varieties NN and Bel3): present a depigmentation; dose at which first symptoms of fluorescence under UV light are obtained ([5]; concentration series 0.5 to 1,000 mg/l): 50 mg/L; ratio of the concentrations (H11-C1 at 200 mg/l versus H11-S) giving the same accumulation of scopoletin (scopoletin): ≤ 30; alkalinisation of the medium [6]: 0.3 pH units; ratio of the concentrations (H11-C1 at 200 mg/l versus H11-S) giving the same accumulation of salicylic acid (salicylic acid): ≤ 30
